{
  "source": "ChEMBL document CHEMBL1136826",
  "about": "“A new synthesis of cytoxazone and its diastereomers provides key initial SAR information” (Bioorg Med Chem Lett, 2003)",
  "key": {"Mus musculus": {"organism": "Mus musculus", "assay": "Inhibitory activity against blockage secretion of IL-10 in pokeweed mitogen (PWN)-stimulated murine splenocytes", "assay_type": "functional, organism-based"}, "[1]": {"assay": "Inhibitory activity against IL-10 on stimulated human peripheral blood mononuclear cells at 30 uM concentration", "assay_type": "functional"}, "[2]": {"assay": "Inhibitory activity against IL-2 on stimulated human peripheral blood mononuclear cells at 30 uM concentration", "assay_type": "functional"}, "[3]": {"assay": "Inhibitory activity against IL-4 on stimulated human peripheral blood mononuclear cells at 30 uM concentration", "assay_type": "functional"}, "[4]": {"assay": "Inhibitory activity against IL-5 on stimulated human peripheral blood mononuclear cells at 30 uM concentration", "assay_type": "functional"}},
  "data": [
    {"smiles": "COc1ccc([C@H]2NC(=O)O[C@H]2CO)cc1", "values": [
      {"measurement": "IC50", "setting": "Mus musculus", "result": 10, "unit": "µM"},
      {"measurement": "inhibition at 30 µM", "setting": "[1]", "result": 94, "unit": "%"},
      {"measurement": "inhibition at 30 µM", "setting": "[2]", "result": 19, "unit": "%"},
      {"measurement": "inhibition at 30 µM", "setting": "[3]", "result": 73, "unit": "%"},
      {"measurement": "inhibition at 30 µM", "setting": "[4]", "result": 66, "unit": "%"}
    ]}
  ]
}
